In patent US8415469B2, “Compounds and methods for kinase modulation, and indications therefor” (Plexxikon Inc., priority 2005, dated 2013):

What was measured:
Format in all cases: biochemical
Brk = Brk (Homo sapiens, UniProt Q13882); assay: AlphaScreen kinase assay, Brk; conditions: read-out: IC50, activity toward kinase Brk
From the text: (§1) AlphaScreen assay was used to screen additional kinases. The assay is similarly dependent on the phosphorylation of a peptide substrate. In this assay, an antibody that recognizes phosphorylated substrate is bound to an acceptor bead. The peptide substrate is attached to biotin, which binds to a donor head that contains streptavidin. Thus phosphorylated substrate is bound by antibody and streptavidin, bringing the donor and acceptor heads into close proximity when kinase is not inhibited. The donor produces singlet oxygen which results in emission from the acceptor when they are in close proximity. Conversely, when kinase is inhibited, the donor and acceptor beads are not associated and the emission from the acceptor is reduced.
(§2) AlphaScreen assays were done using compounds dissolved in DMSO to a concentration of 20 mM. The compounds were diluted accordingly to the desired final concentrations in each sample well, using 1:3 serial dilution for a total of 8 concentration points.

Frk = Frk (Homo sapiens, UniProt P42685); assay: AlphaScreen kinase assay, Frk; conditions: read-out: IC50, activity toward kinase Frk
From the text: as §1, §2

Kdr = target: T1, Kdr (Homo sapiens, UniProt P35968); assay: Z'-Lyte FRET kinase assay (Invitrogen), Kdr; conditions: read-out: IC50, activity toward kinase Kdr
T1 construct: purchased Invitrogen (assay run by Invitrogen)
From the text: For example, direct radiometric, indirect FRET or AlphaScreen assays may be used to assess the level of phosphorylation of a substrate in the presence of test compounds in order to determine the inhibitory affect of the compound on the kinase. […] For these assays, compounds of the invention were screened by Invitrogen using Z′-Lyte™ kinase assay.
Briefly, the Invitrogen kinase assay involves use of a specific peptide substrate optimized for each kinase, containing a fluorophore at each end that make up the FRET pair. The peptide sensitivity to proteolytic cleavage depends on phosphorylation of the peptide. Non-phosphorylated peptide is cleaved by a protease while peptide phosphorylated by the kinase is not cleaved. Cleavage of the peptide disrupts the FRET between the donor (coumarin) and acceptor (fluorescein) fluorophores, resulting in an increase in the ratio of donor emission to acceptor emission. The emission ratio of coumarin to fluorescein is used to assess the reaction progress. […] Thus, the assay involves a kinase reaction in the presence of varying concentrations of a given compound, a development reaction with site specific protease, and detection of the fluorescent emission ratio of coumarin and fluorscein. […] Reaction conditions for each kinase are determined to provide optimal reaction times, incubation temperature, kinase and ATP concentrations. Test samples are made up in 1× kinase buffer (50 mM HEPES pH 7.5, 50 mM MgCl2, 5 mM EGTA, 0.05% BRIJ-35) and compound at desired concentration prepared in DMSO such that the final DMSO is 1%. […] All kinase except for MAP2K1 were at 10 μM ATP in the kinase reaction, while MAP2K1 was at 100 μM. Samples are mixed and the kinase reaction is incubated 1 hour at room temperature, after which 5 μl of development solution is added and mixed. After incubation for another 1 hour at room temperature, 5 μl of stop reagent is added to each sample and mixed. The fluorescence signals are measured to determine the emission ratio.

Jnk1 = target: T2, Jnk1 (Homo sapiens, UniProt P45983); assay: AlphaScreen kinase assay, Jnk1; conditions: read-out: IC50, activity toward kinase Jnk1
T2 construct: purchased Upstate Biotechnology
T2 sequence (P45983 whole entry): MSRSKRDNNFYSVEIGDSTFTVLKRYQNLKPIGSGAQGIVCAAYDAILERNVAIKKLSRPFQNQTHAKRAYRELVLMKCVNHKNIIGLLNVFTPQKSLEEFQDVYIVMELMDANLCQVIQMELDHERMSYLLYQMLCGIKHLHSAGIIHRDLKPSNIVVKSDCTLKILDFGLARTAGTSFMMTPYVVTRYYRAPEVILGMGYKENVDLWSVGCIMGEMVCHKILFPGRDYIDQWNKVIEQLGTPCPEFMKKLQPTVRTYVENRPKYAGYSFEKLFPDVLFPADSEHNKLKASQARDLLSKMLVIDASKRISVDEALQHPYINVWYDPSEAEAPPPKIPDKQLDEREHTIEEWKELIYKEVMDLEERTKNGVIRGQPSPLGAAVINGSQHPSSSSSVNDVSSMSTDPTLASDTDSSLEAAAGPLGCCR

FGFR1 = target: T3, FGFR1 (Homo sapiens, UniProt P11362, C488A/C584S); assay: AlphaScreen kinase assay, FGFR1; conditions: read-out: IC50, activity toward kinase FGFR
T3 construct: P1351.pET N6 BI-PTP FGFR A458-E765-X C488A, C584S; made in house; host or cells: E. coli (PTP1B co-expressed)
T3 sequence (P11362 458-765 C488A/C584S): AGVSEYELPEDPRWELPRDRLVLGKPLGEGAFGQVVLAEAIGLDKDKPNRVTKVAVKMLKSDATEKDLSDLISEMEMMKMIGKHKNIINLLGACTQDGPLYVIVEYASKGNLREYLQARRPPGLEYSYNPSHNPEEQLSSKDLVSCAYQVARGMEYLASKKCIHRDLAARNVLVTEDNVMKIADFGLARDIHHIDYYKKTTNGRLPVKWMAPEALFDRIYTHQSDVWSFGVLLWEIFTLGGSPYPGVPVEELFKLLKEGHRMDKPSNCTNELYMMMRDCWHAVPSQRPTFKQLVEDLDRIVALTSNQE

Src = target: T4, Src (Homo sapiens, UniProt P12931); assay: AlphaScreen kinase assay, Src; conditions: read-out: IC50, activity toward kinase Src
T4 construct: P1144. pET-N6 BI-PTP SRC V86-L536-X; made in house

Csk = Csk (Homo sapiens, UniProt P41240); assay: AlphaScreen kinase assay, Csk; conditions: read-out: IC50, activity toward kinase Csk
Csk, sequence (P41240 whole entry): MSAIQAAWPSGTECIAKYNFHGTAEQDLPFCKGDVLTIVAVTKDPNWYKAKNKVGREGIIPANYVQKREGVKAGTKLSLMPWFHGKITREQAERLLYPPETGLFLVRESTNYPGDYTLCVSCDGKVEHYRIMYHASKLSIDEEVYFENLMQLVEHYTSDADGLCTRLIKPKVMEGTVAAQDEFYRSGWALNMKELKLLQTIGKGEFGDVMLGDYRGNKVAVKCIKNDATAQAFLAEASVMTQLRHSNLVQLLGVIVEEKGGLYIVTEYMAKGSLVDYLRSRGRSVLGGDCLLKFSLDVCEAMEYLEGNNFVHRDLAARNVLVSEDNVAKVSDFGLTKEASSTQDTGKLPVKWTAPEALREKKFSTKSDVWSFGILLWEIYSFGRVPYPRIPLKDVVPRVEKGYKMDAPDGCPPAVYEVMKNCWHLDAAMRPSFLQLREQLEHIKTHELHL
From the text: as §1, §2

Fak = target: T5, Fak (Homo sapiens, UniProt Q05397); assay: AlphaScreen kinase assay, Fak; conditions: read-out: IC50, activity toward kinase Fak
T5 construct: P1358.pFastBacHtb FAK S411-Q686-X; His6 with pFastBacHTb leader (TEV site) (N); made in house; host or cells: Sf9 (baculovirus)
T5 sequence (Q05397 411-686): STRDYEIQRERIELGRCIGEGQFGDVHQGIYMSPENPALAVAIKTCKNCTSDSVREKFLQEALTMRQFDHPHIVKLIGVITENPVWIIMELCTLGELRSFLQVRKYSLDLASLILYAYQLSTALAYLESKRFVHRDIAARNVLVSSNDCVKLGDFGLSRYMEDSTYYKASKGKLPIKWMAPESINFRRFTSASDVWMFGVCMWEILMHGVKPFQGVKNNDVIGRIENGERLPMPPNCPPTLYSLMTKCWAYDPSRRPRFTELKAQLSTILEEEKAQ

Fms = target: T6, Fms (Homo sapiens, UniProt P07333); assay: AlphaScreen kinase assay, Fms; conditions: read-out: IC50, activity toward kinase Fms
T6 construct: purchased Upstate Biotechnology
T6 sequence (P07333 20-972): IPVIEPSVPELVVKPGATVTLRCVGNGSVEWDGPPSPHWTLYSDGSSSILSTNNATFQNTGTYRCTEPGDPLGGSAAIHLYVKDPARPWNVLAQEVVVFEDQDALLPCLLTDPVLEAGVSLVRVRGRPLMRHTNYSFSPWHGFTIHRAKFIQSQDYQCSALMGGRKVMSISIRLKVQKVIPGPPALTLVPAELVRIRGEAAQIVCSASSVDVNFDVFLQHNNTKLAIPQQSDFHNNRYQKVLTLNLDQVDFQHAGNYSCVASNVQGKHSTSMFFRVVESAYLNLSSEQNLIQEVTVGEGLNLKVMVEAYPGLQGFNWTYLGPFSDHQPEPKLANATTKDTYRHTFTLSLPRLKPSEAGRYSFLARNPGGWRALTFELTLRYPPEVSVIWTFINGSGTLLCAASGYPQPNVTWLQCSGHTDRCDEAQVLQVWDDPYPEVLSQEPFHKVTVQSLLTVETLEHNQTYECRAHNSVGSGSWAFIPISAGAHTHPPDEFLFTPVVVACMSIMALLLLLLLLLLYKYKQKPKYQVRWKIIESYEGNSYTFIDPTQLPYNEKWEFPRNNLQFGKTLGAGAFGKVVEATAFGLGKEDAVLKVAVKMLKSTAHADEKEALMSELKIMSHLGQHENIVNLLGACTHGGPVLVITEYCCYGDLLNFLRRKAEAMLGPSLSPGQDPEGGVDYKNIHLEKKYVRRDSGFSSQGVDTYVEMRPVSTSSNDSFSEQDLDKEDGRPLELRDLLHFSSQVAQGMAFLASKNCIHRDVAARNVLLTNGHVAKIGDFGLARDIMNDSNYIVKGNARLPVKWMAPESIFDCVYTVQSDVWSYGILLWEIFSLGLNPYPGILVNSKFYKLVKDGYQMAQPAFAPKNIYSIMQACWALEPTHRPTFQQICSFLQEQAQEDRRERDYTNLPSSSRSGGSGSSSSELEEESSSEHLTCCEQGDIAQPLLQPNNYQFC

Kit = target: T7, Kit (Homo sapiens, UniProt P10721); assay: AlphaScreen kinase assay, Kit; conditions: read-out: IC50, activity toward kinase Kit
T7 construct: P1332.N6 BI PTP KIT M552-K948-X COD; His6 (N); made in house; host or cells: E. coli (PTP1B co-expressed)
T7 sequence (P10721 with tags, fused parts or gaps): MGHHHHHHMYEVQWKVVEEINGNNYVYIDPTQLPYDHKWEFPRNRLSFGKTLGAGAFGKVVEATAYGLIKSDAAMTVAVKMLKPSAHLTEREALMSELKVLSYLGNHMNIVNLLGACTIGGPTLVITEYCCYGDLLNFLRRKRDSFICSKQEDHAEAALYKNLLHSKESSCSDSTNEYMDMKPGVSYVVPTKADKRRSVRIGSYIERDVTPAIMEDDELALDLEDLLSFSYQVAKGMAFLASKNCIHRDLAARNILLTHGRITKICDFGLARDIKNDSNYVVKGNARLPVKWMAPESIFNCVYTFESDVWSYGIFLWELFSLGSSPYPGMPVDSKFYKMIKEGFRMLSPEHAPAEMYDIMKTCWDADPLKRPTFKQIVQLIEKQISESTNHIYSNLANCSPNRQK

TEC = target: T8, TEC (Homo sapiens, UniProt P42680); assay: AlphaScreen kinase assay, TEC; conditions: read-out: IC50, activity toward kinase TEC
T8 sequence (P42680 1-631): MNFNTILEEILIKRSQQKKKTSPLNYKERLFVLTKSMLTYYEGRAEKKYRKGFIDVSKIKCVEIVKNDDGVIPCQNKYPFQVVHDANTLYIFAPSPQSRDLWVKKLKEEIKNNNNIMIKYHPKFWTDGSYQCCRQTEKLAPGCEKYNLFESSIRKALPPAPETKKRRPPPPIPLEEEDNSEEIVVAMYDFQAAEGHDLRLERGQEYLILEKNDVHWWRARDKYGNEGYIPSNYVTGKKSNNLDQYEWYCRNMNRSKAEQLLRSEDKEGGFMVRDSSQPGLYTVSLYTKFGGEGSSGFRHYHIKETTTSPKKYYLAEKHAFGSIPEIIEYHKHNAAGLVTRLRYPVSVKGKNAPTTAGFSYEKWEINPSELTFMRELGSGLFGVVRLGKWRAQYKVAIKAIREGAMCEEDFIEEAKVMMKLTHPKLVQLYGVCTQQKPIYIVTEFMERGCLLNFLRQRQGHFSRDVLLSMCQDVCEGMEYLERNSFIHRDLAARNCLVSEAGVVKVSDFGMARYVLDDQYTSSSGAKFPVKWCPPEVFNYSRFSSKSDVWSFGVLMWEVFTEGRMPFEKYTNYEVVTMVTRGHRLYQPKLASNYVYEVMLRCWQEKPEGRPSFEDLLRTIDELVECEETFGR
From the text: as §1, §2

Btk = target: T9, Btk (Homo sapiens, UniProt Q06187); assay: Z'-Lyte FRET kinase assay (Invitrogen), Btk; conditions: read-out: IC50, activity toward kinase Btk
T9 construct: purchased Invitrogen (assay run by Invitrogen)

B-Raf = target: T10, B-Raf (Homo sapiens, UniProt P15056); assay: AlphaScreen kinase assay, B-Raf; conditions: read-out: IC50, activity toward kinase B-Raf
T10 construct: purchased Upstate Biotechnology
T10 sequence (P15056 whole entry): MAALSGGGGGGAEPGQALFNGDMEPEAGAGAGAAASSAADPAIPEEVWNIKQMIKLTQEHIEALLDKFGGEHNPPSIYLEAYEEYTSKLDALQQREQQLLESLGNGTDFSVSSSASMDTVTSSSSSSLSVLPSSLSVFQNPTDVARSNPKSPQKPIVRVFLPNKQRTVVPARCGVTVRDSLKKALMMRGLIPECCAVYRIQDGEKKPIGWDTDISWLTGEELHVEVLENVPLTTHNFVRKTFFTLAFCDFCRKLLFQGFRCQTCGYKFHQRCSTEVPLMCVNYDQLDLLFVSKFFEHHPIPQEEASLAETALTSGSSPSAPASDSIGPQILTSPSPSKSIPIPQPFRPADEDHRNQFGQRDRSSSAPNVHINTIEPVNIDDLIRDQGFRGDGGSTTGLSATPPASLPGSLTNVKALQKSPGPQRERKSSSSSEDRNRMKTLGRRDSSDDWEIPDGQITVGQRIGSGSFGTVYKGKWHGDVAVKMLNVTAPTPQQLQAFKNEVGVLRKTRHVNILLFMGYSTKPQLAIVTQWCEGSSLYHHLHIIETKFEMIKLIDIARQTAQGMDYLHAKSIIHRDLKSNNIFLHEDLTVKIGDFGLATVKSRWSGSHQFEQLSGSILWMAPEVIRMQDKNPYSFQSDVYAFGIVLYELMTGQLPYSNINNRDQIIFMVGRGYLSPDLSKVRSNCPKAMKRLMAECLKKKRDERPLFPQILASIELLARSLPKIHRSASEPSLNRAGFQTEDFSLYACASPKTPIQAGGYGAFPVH

B-Raf V600E = target: T11, B-Raf V600E (Homo sapiens, UniProt P15056, V600E); assay: AlphaScreen kinase assay, B-Raf V600E; conditions: read-out: IC50, activity toward kinase B-Raf V600E
T11 construct: P4254. pFastBacBD-CDC37 BRAF D437-K722-X, V600E; His6 with pFastBac HT leader (TEV site) (N); made in house; host or cells: Sf9 (baculovirus; chaperone CDC37 co-expressed)
T11 sequence (P15056 with tags, fused parts or gaps V600E): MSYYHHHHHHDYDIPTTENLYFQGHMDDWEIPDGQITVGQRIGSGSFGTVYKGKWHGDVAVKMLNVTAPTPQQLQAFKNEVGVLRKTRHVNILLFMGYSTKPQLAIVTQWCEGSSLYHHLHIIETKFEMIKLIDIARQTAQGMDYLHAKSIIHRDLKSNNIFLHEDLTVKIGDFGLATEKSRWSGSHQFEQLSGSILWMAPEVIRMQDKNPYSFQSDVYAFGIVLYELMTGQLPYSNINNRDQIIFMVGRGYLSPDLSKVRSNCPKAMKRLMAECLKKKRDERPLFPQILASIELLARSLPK

c-Raf-1 = target: T12, c-Raf-1 (Homo sapiens, UniProt P04049); assay: AlphaScreen kinase assay, c-Raf-1; conditions: read-out: IC50, activity toward kinase c-Raf-1
T12 construct: purchased Upstate Biotechnology
T12 sequence (P04049 whole entry): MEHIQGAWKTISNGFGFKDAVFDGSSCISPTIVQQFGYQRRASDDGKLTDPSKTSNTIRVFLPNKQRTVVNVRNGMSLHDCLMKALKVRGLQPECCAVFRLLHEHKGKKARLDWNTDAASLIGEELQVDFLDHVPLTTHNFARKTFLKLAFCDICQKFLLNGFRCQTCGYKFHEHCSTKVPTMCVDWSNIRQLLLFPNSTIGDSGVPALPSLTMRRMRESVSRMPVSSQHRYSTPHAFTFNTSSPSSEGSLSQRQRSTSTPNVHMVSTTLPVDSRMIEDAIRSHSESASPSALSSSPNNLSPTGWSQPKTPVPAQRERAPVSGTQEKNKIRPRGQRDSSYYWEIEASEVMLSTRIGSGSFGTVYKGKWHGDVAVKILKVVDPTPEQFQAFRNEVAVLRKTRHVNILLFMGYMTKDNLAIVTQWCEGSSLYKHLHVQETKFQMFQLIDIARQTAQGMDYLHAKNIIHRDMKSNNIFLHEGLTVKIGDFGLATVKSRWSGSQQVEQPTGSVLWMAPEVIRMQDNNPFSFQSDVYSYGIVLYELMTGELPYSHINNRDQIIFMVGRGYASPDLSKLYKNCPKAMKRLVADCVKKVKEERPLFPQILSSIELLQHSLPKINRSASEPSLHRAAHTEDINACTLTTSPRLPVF

Stk6 = target: T13, Stk6 (Homo sapiens, UniProt O14965); assay: Z'-Lyte FRET kinase assay (Invitrogen), Stk6; conditions: read-out: IC50, activity toward kinase Stk6
T13 construct: purchased Invitrogen (Carlsbad, Calif.), screening service
T13 sequence (O14965 1-403): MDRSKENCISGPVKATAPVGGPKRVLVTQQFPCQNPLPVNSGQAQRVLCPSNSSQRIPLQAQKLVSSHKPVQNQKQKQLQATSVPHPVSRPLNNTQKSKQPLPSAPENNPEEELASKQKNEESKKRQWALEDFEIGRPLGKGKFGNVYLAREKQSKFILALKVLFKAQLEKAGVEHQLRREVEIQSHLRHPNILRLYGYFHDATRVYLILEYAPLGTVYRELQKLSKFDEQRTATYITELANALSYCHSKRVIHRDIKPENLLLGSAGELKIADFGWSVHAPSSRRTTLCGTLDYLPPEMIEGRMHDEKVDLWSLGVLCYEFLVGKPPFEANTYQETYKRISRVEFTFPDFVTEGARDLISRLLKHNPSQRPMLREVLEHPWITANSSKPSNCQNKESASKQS

Syk = Syk (Homo sapiens, UniProt P43405); assay: AlphaScreen kinase assay, Syk; conditions: read-out: IC50, activity toward kinase Syk
From the text: as §1, §2

Jnk3 = target: T14, Jnk3 (Homo sapiens, UniProt P53779); assay: AlphaScreen kinase assay, Jnk3; conditions: read-out: IC50, activity toward kinase Jnk3
T14 construct: purchased Upstate Biotechnology

Ret = target: T15, Ret (Homo sapiens, UniProt P07949); assay: AlphaScreen kinase assay, Ret; conditions: read-out: IC50, activity toward kinase Ret
T15 construct: P1378.pET-SF BI-PTP RET H661-R1012 HIS; made in house
T15 sequence (P07949 with tags, fused parts or gaps): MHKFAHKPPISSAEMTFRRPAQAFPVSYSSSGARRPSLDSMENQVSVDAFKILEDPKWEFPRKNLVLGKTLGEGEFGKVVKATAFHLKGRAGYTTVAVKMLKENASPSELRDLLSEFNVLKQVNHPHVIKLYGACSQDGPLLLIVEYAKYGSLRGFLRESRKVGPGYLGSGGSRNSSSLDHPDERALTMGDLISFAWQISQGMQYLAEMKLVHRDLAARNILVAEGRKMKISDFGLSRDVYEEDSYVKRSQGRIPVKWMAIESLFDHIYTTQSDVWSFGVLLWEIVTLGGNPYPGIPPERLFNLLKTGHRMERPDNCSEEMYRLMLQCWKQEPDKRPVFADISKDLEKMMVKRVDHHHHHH

Measured: IC50

Brk, sequence (Q13882 whole entry): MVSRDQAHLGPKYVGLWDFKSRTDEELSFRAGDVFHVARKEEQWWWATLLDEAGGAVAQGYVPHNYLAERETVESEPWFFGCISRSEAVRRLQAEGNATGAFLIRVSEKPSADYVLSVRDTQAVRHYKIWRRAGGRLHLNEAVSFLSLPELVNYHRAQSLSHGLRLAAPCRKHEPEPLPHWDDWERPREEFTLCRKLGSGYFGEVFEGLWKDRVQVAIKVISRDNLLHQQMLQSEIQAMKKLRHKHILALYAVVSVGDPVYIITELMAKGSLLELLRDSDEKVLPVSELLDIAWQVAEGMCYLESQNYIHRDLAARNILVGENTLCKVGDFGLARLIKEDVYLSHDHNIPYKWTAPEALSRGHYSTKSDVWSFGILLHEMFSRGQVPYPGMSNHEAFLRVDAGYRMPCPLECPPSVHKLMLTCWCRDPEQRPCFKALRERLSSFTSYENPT

CCCS(=O)(=O)Nc1ccc(F)c(C(=O)c2c[nH]c3ncc(-c4ccc(Cl)cc4)cc23)c1F [Compound P-0956, Propane-1-sulfonic acid {3-[5-(4-chloro-phenyl)-1H-pyrrolo[2,3-b]pyridine-3-carbonyl]-2,4-difluoro-phenyl}-amide]
≤ 10 µM: Brk | Frk | Kdr | Jnk1 | FGFR1 | Src | Csk | Fak | Fms | Kit

O=C(c1c(F)ccc(NS(=O)(=O)N2CCCCC2)c1F)c1c[nH]c2ncc(Cl)cc12 [Compound P-1020, Piperidine-1-sulfonic acid [3-(5-chloro-1H-pyrrolo[2,3-b]pyridine-3-carbonyl)-2,4-difluoro-phenyl]-amide]
not listed: Kdr | Jnk1 | Fms | Kit | Stk6 | Syk | Jnk3 | Ret
≤ 10 µM: all other assays above

CCCS(=O)(=O)Nc1cccc(C(=O)c2c[nH]c3ncc(Br)cc23)c1F [Compound P-0955, Propane-1-sulfonic acid [3-(5-bromo-1H-pyrrolo[2,3-b]pyridine-3-carbonyl)-2-fluoro-phenyl]-amide]
not listed: Kdr | Jnk1 | TEC | Btk | Syk | Jnk3 | Ret
≤ 10 µM: all other assays above

O=C(O)/C=C/c1cccc(-c2cnc3[nH]cc(C(=O)c4cccc(Cl)c4Cl)c3c2)c1 [Compound P-0089]
≤ 10 µM: Syk | Kdr | FGFR1 | Jnk3 | Btk | Ret | B-Raf V600E

CCCS(=O)(=O)Nc1cccc(C(=O)c2c[nH]c3ncc(Cl)cc23)c1F [Compound P-1013, propane-1-sulfonic acid [3-(5-chloro-1H-pyrrolo[2,3-b]pyridine-3-carbonyl)-2-fluoro-phenyl]-amide]
not listed: Kdr | Jnk1 | FGFR1 | TEC | Btk | Syk | Jnk3 | Ret
≤ 10 µM: all other assays above
